# ChEMBL document CHEMBL1201862, “PubChem BioAssay data set” (2004)
# The source made the active and inactive calls.
# What was measured:
# [1] = NIH-3T3 fibroblast cytotoxicity, dose response, cytotoxicity control, cell-based, fluorescence, Alamar Blue, secondary assay (AID 2327); type: functional;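 further: NIH-3T3 mouse fibroblasts cultured with fluconazole at 8 µg/mL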
# [2] = fluconazole-exposed Candida albicans growth modulators – fluorescence, retest, confirmation (AID 2467); type: functional, cell-based
# [3] = molecular target: Induced myeloid leukemia cell differentiation protein Mcl-1 (Homo sapiens, UniProt Q07820); assay: blockers of MCL1 binding to BIM peptide – biochemical, fluorescence polarization, BIM-BH3 peptide, 1536-well, dose response (AID 2217)
# Bcl-2-like protein 1 = Bcl-2-like protein 1 (Homo sapiens, UniProt Q07817); assay: blockers of BCLXL peptide binding – biochemical, fluorescence polarization, 1536-well, selectivity assay for MCL1 inhibitor project, dose response (AID 2218)
# BJ [4] = assay: BJ-TERT fibroblast viability loss – cell-based, RAS-independent, luminescence, dose response (AID 1933); type: functional; conditions: Homo sapiens
# Vero [5] = assay: mammalian cell viability reduction – secondary assay, cytotoxicity control for West Nile virus antiviral project, dose response (AID 1650); type: functional; conditions: Chlorocebus sabaeus
# BJ [6] = assay: cells; type: functional, cell-based; conditions: Homo sapiens
# Vero [7] = assay: inhibition of WNV-induced cytopathic effect – cell-based, CPE readout (AID 1621); type: functional; conditions: Chlorocebus sabaeus
# BJ [8] = assay: BJ-TERT-LT-ST fibroblast viability loss – cell-based, RAS-independent, luminescence, dose response (AID 1935); type: functional; conditions: Homo sapiens;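 further: BJ fibroblasts immortalized with TERT plus LT and ST oncogenes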
# [9] = DRD fibroblast viability loss – cell-based, non-viral oncogenic, luminescence, dose response (AID 1934); type: functional; conditions: Homo sapiens
# Vero [10] = assay: cells; type: functional, cell-based; conditions: Chlorocebus sabaeus
# BJ [11] = assay: growth inhibition of engineered Ras-driven BJ cells – cell-based, alamar blue fluorescence, cherrypicked samples, dose response (AID 2631); type: functional; conditions: Homo sapiens;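 further: confirmatory dose-response assay in RAS-dependent BJ fibroblasts engineered with TERT, LT and ST, with cytotoxicity read by fluorescence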
# Vero [12] = assay: cells; type: functional; conditions: Chlorocebus sabaeus
# [13] = Luminescence-based dose response cell-based high throughput screening assay for cytotoxic compounds using the IEC-6 intestinal epithelial cell line. [Related pubchem assays: 1858 (Summary AID.), 1825 (Counterscreen.), 1907 (Confirmation screen.)]; type: functional
# cells = type: functional, cell-based
# [14] = molecular target: T1, Nuclear receptor subfamily 0 group B member 1 (Homo sapiens, UniProt P51843); type: functional, cell-based;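 further: HEK293T cells transfected with SF-1 and DAX-1 plus StAR promoter luciferase reporter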
# T1 sequence (P51843 whole entry): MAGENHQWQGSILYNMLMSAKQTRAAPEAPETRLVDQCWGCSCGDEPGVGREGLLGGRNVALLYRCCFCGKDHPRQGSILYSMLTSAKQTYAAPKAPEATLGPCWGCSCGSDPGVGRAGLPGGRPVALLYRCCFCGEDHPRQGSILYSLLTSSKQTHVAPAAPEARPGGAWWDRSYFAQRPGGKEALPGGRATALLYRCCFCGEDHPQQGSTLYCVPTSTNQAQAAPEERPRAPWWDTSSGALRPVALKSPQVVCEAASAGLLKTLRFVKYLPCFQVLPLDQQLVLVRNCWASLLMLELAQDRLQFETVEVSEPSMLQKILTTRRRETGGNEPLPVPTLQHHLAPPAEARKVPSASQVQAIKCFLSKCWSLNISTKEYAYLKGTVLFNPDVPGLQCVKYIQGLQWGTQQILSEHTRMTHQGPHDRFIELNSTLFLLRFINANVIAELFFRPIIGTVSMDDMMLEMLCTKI
# [15] = Luminescence Cell-Based Dose Response to Identify Activators of 5'UTR Stem-Loop Driven Prion Protein mRNA Translation in H4-C Neuroglioblastoma Cells. [Related pubchem assays: 1829 (Project Summary), 1814 (Primary HTS)]; type: functional
# [16] = Luminescence Cell-Based Dose Response HTS to Identify Activators of Luciferase Translation or Activity in H4 […] Cells. [Related pubchem assays: 1829 (Project Summary), 1814 (Primary HTS)]; type: functional
# H4 = assay: Luminescence Cell-Based Dose Response HTS to Identify Activators of 5'UTR Stem-Loop Driven Prion Protein mRNA Translation in H4 Neuroglioblastoma Cells. [Related pubchem assays: 1829 (Project Summary), 1814 (Primary HTS)]; type: functional; conditions: Homo sapiens
# [17] = Luminescence Cell-Based Dose Response to Identify Activators of Luciferase Translation or Activity in H4-C Neuroglioblastoma Cells. [Related pubchem assays: 1829 (Project Summary), 1814 (Primary HTS)]; type: functional
# [18] = Luminescence Cell-Based Dose Confirmation to Identify Activators of 5'UTR Stem-Loop Driven Alpha-Synuclein mRNA Translation in H4 Neuroglioblastoma Cells. [Related pubchem assays: 1829 (Project Summary), 1814 (Primary HTS)]; type: functional
# Leucine aminopeptidase = molecular target: T2, Leucine aminopeptidase (Plasmodium falciparum 3D7, UniProt Q8IL11); assay: P. falciparum M17LAP inhibitors, primary screen, biochemical, fluorogenic H-Leu-NHMec substrate, 1536-well (AID 1619); type: functional
# T2 sequence (Q8IL11 whole entry): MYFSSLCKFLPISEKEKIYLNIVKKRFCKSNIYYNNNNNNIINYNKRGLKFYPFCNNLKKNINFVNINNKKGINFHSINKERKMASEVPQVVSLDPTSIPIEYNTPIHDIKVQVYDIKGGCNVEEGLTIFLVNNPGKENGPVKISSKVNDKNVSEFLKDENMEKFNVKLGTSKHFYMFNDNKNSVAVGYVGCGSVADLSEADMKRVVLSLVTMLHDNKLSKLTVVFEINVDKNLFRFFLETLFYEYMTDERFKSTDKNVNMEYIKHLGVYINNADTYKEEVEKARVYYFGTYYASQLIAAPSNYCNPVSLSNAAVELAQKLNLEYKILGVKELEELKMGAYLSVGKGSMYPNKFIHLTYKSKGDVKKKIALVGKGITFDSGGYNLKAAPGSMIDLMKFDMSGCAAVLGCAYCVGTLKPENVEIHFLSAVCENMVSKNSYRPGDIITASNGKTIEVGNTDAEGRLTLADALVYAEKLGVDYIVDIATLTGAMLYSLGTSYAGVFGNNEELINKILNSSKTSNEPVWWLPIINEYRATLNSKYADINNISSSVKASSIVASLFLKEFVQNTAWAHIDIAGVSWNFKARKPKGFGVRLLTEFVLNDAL
# Aspartyl aminopeptidase = Aspartyl aminopeptidase (Plasmodium falciparum 3D7, UniProt Q8I2J3); assay: Counterscreen for inhibitors of M1 and M17 aminopeptidases: QFRET-based biochemical high throughput dose response assay for inhibitors of the Plasmodium falciparum M18 Aspartyl Aminopeptidase (PFM18AAP). [Related PubChem assays: 1619 (Screening assay (M17LAP inhibitors).), 1445 (Screening assay (M1AAP inhibitors).)]
# Procathepsin L = Procathepsin L (Homo sapiens, UniProt P07711); assay: CTSL1 protease inhibition – biochemical, QFRET, 1536-well, counter-screen for M1/M17 aminopeptidase inhibitor project, dose response (AID 2214)
# [19] = molecular target: T3, Replicative DNA helicase DnaB (Mycobacterium tuberculosis, UniProt P9WMR3); assay: DnaB intein splicing inhibitors, dose response, biochemical, cell-free fluorescence (AID 449749); type: functional
# T3 sequence (P9WMR3 whole entry): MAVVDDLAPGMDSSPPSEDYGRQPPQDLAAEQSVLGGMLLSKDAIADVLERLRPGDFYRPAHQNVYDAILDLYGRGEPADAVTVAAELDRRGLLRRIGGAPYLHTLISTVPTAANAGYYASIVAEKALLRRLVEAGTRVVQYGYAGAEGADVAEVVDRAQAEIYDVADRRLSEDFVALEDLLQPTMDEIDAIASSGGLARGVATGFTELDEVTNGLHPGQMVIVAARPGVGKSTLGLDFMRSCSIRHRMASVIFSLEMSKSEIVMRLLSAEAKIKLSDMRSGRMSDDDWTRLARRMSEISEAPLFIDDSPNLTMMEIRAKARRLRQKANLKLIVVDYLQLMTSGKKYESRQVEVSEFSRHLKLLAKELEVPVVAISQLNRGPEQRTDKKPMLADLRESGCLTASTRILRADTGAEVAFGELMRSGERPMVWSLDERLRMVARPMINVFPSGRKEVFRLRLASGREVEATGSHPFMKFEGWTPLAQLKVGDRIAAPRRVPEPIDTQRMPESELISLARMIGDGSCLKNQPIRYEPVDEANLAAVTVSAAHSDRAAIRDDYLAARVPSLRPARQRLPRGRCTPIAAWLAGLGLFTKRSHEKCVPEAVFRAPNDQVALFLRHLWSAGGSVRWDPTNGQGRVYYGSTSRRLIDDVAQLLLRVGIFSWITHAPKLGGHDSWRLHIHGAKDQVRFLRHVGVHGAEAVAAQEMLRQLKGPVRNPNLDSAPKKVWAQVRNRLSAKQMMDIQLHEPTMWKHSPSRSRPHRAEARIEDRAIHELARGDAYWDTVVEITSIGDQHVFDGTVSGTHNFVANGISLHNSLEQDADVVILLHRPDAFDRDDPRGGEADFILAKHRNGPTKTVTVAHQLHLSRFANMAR
# Protein RecA = molecular target: T4, Protein RecA (Mycobacterium tuberculosis, UniProt P9WHJ3); assay: Fluorescence Cell-Free Homogeneous Dose Retest to Identify Inhibitors of RecA-Intein Splicing Activity. [Related pubchem assays (depositor defined):AID2097, AID2223, AID489010, AID492950]; type: functional
# T4 sequence (P9WHJ3 whole entry): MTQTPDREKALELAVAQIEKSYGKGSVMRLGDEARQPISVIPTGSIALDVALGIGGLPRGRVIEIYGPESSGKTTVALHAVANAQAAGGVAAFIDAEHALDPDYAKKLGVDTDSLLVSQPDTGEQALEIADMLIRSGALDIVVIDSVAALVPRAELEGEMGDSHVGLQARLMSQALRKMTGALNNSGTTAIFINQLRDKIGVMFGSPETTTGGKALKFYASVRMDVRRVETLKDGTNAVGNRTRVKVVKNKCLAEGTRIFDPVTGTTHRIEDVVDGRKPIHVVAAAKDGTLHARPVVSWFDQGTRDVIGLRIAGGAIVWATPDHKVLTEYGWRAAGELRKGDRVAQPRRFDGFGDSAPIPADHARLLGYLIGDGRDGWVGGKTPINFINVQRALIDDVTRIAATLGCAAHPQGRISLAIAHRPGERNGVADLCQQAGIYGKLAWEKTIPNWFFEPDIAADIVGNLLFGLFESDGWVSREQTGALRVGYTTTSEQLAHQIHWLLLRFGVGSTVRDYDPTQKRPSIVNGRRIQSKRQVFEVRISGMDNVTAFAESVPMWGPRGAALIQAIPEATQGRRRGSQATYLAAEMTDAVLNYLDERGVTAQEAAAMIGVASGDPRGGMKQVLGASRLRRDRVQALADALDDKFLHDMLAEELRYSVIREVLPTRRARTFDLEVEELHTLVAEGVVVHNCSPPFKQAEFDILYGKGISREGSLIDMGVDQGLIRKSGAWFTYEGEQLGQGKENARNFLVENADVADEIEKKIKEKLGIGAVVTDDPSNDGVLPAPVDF
# Bcl-2-related protein A1 [20] = molecular target: T5, Bcl-2-related protein A1 (Mus musculus, UniProt Q07440); assay: displacement of Bid BH3 peptide from Bfl-1 – biochemical, fluorescence polarization, FITC-Bid, mouse, primary screen (AID 432)
# T5 sequence (Q07440 whole entry): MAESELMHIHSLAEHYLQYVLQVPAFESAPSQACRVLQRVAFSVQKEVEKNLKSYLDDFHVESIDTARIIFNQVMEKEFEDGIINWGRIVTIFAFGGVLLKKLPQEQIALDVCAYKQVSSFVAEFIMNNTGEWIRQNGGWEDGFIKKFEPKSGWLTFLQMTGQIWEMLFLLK
# Bcl-2-related protein A1 [21] = molecular target: T5, Bcl-2-related protein A1; assay: small-molecule antagonists of Bfl-1/BH3 interaction – biochemical, TR-FRET, mouse Bfl-1, confirmation (AID 621);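 further: TR-FRET binding of GST-Bfl-1 to FITC-labelled Bid peptide via terbium antibody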
# Procathepsin L, sequence (P07711 whole entry): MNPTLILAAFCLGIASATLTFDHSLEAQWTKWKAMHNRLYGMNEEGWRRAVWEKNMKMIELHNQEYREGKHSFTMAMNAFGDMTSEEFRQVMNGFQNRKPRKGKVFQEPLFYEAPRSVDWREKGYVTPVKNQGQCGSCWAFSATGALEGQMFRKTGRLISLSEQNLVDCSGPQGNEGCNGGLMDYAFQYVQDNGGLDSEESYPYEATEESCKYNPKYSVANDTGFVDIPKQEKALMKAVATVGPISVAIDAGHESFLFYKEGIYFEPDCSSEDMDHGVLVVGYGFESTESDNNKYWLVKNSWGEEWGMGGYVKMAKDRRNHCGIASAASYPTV
# Aspartyl aminopeptidase, sequence (Q8I2J3 whole entry): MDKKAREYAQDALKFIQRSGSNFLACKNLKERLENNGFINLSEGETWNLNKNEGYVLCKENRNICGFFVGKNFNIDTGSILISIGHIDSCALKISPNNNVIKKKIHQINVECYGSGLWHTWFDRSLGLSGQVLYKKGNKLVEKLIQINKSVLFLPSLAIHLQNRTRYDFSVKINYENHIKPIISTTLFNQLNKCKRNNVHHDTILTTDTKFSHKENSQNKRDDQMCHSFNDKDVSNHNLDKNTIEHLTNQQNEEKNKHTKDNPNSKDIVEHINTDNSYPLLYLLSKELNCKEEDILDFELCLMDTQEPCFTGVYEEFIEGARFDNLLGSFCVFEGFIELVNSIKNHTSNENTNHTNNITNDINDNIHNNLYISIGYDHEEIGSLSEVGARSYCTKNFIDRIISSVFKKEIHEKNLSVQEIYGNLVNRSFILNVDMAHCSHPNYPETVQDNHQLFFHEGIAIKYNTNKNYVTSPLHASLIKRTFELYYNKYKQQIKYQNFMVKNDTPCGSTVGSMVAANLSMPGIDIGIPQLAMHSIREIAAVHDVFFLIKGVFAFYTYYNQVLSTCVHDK
# Induced myeloid leukemia cell differentiation protein Mcl-1, sequence (Q07820 whole entry): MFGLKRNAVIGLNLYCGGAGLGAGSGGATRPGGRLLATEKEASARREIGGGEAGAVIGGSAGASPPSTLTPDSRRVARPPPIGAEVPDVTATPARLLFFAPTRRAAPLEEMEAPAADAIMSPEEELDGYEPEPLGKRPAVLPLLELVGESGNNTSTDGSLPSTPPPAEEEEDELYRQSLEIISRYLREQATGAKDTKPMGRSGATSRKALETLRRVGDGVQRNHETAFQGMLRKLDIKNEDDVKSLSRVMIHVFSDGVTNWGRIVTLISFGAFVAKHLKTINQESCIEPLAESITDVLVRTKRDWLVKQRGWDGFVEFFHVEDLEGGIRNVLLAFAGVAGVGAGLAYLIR
# Bcl-2-like protein 1, sequence (Q07817 whole entry): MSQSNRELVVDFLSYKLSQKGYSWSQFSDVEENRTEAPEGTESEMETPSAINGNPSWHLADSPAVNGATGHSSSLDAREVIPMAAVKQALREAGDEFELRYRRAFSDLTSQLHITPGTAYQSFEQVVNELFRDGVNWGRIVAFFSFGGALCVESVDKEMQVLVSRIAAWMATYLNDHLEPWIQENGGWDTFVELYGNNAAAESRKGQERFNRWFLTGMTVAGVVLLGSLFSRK
smiles,measurement,setting,value
CC12CCC(C(=O)N(NC(=O)c3ccccc3O)C1=O)C2(C)C (configuration not stated),EC50,[1],> 160 µM (inactive)
same,EC50,[2],> 38 µM (not active)
same,IC50,[3],> 109 µM (not active)
same,IC50,Bcl-2-like protein 1,> 109 µM (not active)
Cc1ccc(NC(=O)[C@H](Cc2c[nH]c3ccccc23)NC(=O)[C@@H]2Cc3ccccc3CN2)c(C)c1,EC50,BJ [4],21.1 µM (active)
same,CC50,Vero [5],12.5 µM (active)
same,EC50,BJ [6],20.7 µM (active)
same,IC50,Vero [7],43.3 µM (active)
same,EC50,BJ [8],> 150 µM (not active)
same,EC50,[9],112 µM (inconclusive)
same,IC50,Vero [10],1.91 µM (active)
same,EC50,BJ [11],> 133 µM (inactive)
same,CC50,Vero [12],15.9 µM (active)
N#Cc1c(NC(=O)/C=C/c2ccco2)sc2c1CCCC2,EC50,BJ [4],0.181 µM (active)
same,EC50,BJ [6],1.48 µM (inconclusive)
same,IC50,[13],0.136 µM (active)
same,EC50,[9],0.278 µM (active)
same,EC50,BJ [11],< 0.104 µM (active)
same,IC50,cells,> 67.6 µM (inactive)
same,IC50,[14],1.43 µM (active)
Cc1nc2c(-c3ccccc3)cnn2c(N2CCOCC2)c1C,EC50,[15],0.246 µM (active)
same,EC50,[16],< 0.1 µM (active)
same,EC50,H4,0.108 µM (active)
same,EC50,[17],0.246 µM (active)
same,EC50,[18],2.38 µM (active)
CCOc1cccc(-c2cc(O)[nH]n2)c1,IC50,Leucine aminopeptidase,1.25 µM (active)
same,IC50,Aspartyl aminopeptidase,> 73.5 µM (not active)
same,IC50,Procathepsin L,> 59.6 µM (not active)
same,AC50,[19],2.18 µM (active)
same,EC50,Protein RecA,0.695 µM (active)
OCCCc1nc2n(n1)C(c1cccs1)C=C(c1ccccc1)N2 (configuration not stated),IC50,Bcl-2-related protein A1 [20],> 100 µM (not active)
same,IC50,Bcl-2-related protein A1 [21],> 100 µM (not active)
